Experimental data reported in the supplement of paper PMC10307832.

Legend:
Test in all cases: relative viability (nuclei count vs DMSO), 5 days (fraction); higher = more cells survive
Entinostat + AZD7762 = compound: Nc1ccccc1NC(=O)c1ccc(CNC(=O)OCc2cccnc2)cc1 [Entinostat] + NC(=O)Nc1cc(-c2cccc(F)c2)sc1C(=O)N[C@H]1CCCNC1 [AZD7762] (partner 0.2 µM)
Procedure, shortened: (§1)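 Cells from lung cancer lines were seeded into 1536-well plates and, one day later, dosed by pin tool. Treatments were either a single drug or a fixed dose of an anchor drug with five library-drug doses (not always all listed) in √10 steps. After 5 days, nuclei were stained in a one-step fixation (final 0.05% Triton X-100, 1% formaldehyde, 1 ug/ml Hoechst) and counted on 4× images, and relative viability is the treated-to-vehicle nuclei ratio, as the median of duplicate plates.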

[1] = compound: C1COCCN1C2=NC(=NC3=C2OC4=C3C=CC=N4)C5=CC(=CC=C5)NC(=O)C6=CN=C(C=C6)N + Cc1nc(NC(=O)N2CCC[C@H]2C(N)=O)sc1-c1ccnc(C(C)(C)C(F)(F)F)c1 [Alpelisib] (partner 2 µM)
Procedure, shortened: as §1

SGI-1776 + Tozasertib = compound: CN1CCC(CNc2ccc3ncc(-c4cccc(OC(F)(F)F)c4)n3n2)CC1 [SGI-1776] + Cc1cc(Nc2cc(N3CCN(C)CC3)nc(Sc3ccc(NC(=O)C4CC4)cc3)n2)n[nH]1 [Tozasertib] (partner 0.1 µM)
Procedure, shortened: as §1

Entinostat + Navitoclax = compound: Nc1ccccc1NC(=O)c1ccc(CNC(=O)OCc2cccnc2)cc1 [Entinostat] + CC1(C)CCC(c2ccc(Cl)cc2)=C(CN2CCN(c3ccc(C(=O)NS(=O)(=O)c4ccc(N[C@H](CCN5CCOCC5)CSc5ccccc5)c(S(=O)(=O)C(F)(F)F)c4)cc3)CC2)C1 [Navitoclax] (partner 0.5 µM)
Procedure, shortened: as §1

Cell Line	relative viability (Entinostat + AZD7762; first compound 0.02 µM)	relative viability (Entinostat + AZD7762; first compound 0.06325 µM)	relative viability (Entinostat + AZD7762; first compound 0.2 µM)	relative viability (Entinostat + AZD7762; first compound 0.6325 µM)	relative viability (Entinostat + AZD7762; first compound 2 µM)	relative viability ([1]; first compound 0.02 µM)	relative viability ([1]; first compound 0.06325 µM)	relative viability ([1]; first compound 0.2 µM)	relative viability ([1]; first compound 0.6325 µM)	relative viability ([1]; first compound 2 µM)	relative viability (SGI-1776 + Tozasertib; first compound 0.08 µM)	relative viability (SGI-1776 + Tozasertib; first compound 0.8 µM)	relative viability (SGI-1776 + Tozasertib; first compound 2.53 µM)	relative viability (SGI-1776 + Tozasertib; first compound 8 µM)	relative viability (Entinostat + Navitoclax; first compound 0.02 µM)	relative viability (Entinostat + Navitoclax; first compound 0.06325 µM)	relative viability (Entinostat + Navitoclax; first compound 0.2 µM)	relative viability (Entinostat + Navitoclax; first compound 0.6325 µM)	relative viability (Entinostat + Navitoclax; first compound 2 µM)
PC-14	0.577	0.364	0.397	0.165	0.0725	0.881	1.21	0.917	0.916	0.577	0.618	0.522	0.452	0.0803	0.999	1.07	1.14	0.47	0.113
NCI-H1944	0.413	0.463	0.394	0.259	0.238	0.894	0.705	0.851	0.782	0.731	0.247	0.252	0.253	0.226	0.985	0.998	0.938	0.485	0.311
NCI-H2085	0.965	0.93	0.909	0.683	0.692	0.956	0.988	0.926	0.909	0.596	0.858	0.617	0.463	0.389	1	1.06	1.04	0.801	0.604
NCI-H2347	0.741	0.755	0.576	0.378	0.255	1.06	1.03	1.06	0.998	0.842	0.491	0.579	0.418	0.279	0.839	0.746	0.514	0.19	0.227
ABC-1	0.803	0.727	0.951	0.86	0.59	1.03	1.05	0.981	0.971	0.695	0.175	0.134	0.173	0.175					
201T	0.694	0.711	0.601	0.402	0.328	1.03	1.03	0.926	0.96	0.966	0.982	0.901	0.549	0.366	1.2	1.16	1.1	0.959	0.779
NCI-H1755	0.406	0.486	0.493	0.405	0.355	1.07	1	0.965	0.863	0.397	0.626	0.521	0.452	0.373	1.05	0.954	0.806	0.451	0.332
NCI-H596	1.19	1.11	1.14	0.817	0.829	0.497	0.51	0.691	0.51	0.394	1.07	1.04	0.792	0.577	0.923	0.962	0.861	0.8	0.581
NCI-H1651	0.452	0.48	0.377	0.394	0.245	0.904	0.915	0.899	0.897	0.443	0.619	0.642	0.31	0.344	1.02	1.06	1.09	0.709	0.273
NCI-H1437	1.12	0.947	0.781	0.396	0.369	0.952	1.09	0.788	0.962	0.423	0.435	0.439	0.344	0.314	1.01	0.679	0.432	0.216	0.155
NCI-H1975	0.628	0.612	0.669	0.476	0.395	0.677	0.705	0.548	0.567	0.352	0.809	0.335	0.169	0.175	0.906	0.782	0.751	0.289	0.188
BEN	0.771	0.714	0.685	0.602	0.464	1.07	1.04	1.01	0.931	0.613	0.523	0.599	0.62	0.453	0.0534	0.0509	0.0495	0.0765	0.062
NCI-H322M	0.591	0.64	0.958	0.731	0.621	0.81	0.773	0.768	0.638	0.665	0.551	0.483	0.461	0.394	1.3	1.17	1.27	1.27	0.845
HOP-62	0.535	0.711	0.545	0.222	0.15	0.818	1.13	0.947	0.979	0.518	0.397	0.323	0.241	0.251	1.08	0.923	0.832	0.607	0.217
HCC-366	0.262	0.29	0.272	0.107	0.121	0.575	0.471	0.314	0.287	0.189	0.115	0.0741	0.0957	0.0418	1.06	0.946	0.905	0.529	0.138
NCI-H2405	0.795	0.896	0.704	0.641	0.495	0.664	0.716	0.803	0.815	0.622	0.711	0.484	0.353	0.314	1	1.13	1.15	0.814	0.655
ChaGo-K-1	0.872	0.861	0.962	0.897	0.692						0.242	0.22	0.223	0.177	1.23	1.04	1.11	0.783	0.679
